Results from US20170112108A1, “GENETICALLY MODIFIED NON-HUMAN MAMMALS HAVING MODIFIED LIVER CELLS AND/OR TISSUE AND METHODS OF MAKING SAME” (priority 2015, published 2017).
Like-named read-outs stand apart in the source and are kept apart here.

Columns and labels:
[1] = system: rat liver; assay: Serum ALT after GCV in neonatal rats given rAAV-PB-HSVtk and rAAV-PBo; assay type: in vivo; conditions: 50 mg/kg GCV, 2 injections 2 days apart, 2 weeks after rAAV-PB-HSVtk and rAAV-PBo (5e10 vector genomes each); serum one week later
Experimental: 20% targeted delivery is insufficient to induce desirable liver damage with ganciclovir (GCV). Three day old neonatal rats were injected with 5e10 vector genomes each of rAAV-PB-HSVtk and rAAV-PBo per animal. Due to the stable integration and expression of suicide gene HSVtk mediated by piggyBac transposon multiple injections of ganciclovir (GCV) can be administered over a prolonged period of time. 2 weeks later, each animal was injected with 50 mg/kg GCV (2 injections, 2 days apart). One week later blood serum was collected and analyzed for elevated ALT levels, which is indicative of liver damage. […] ALT levels in the 200-300 range in desirable prior to transplantation of human hepatocytes.

[2] = system: rats; conditions: bosentan-treated rats; cited from earlier work
[3] = system: human liver; conditions: in vivo, cited from earlier work
[4] = system: clinical trial participants; conditions: of 15 clinical trial participants; cited from earlier work
[5] = system: mice, rats, dogs and primates; conditions: cited from earlier work

## Nc1nc(O)c2ncn(COC(CO)CO)c2n1 [GCV, ganciclovir]
[1]
  serum ALT levels (liver damage): normal ALT levels

## COc1ccccc1Oc1c(NS(=O)(=O)c2ccc(C(C)(C)C)cc2)nc(-c2ncccn2)nc1OCCO [Bosentan]
[2]
  hepatotoxicity in rats: do not develop hepatotoxicity
[3]
  human-specific hepatotoxicity: causes hepatotoxicity in a human-specific manner
[3]; listed as Bosetan
  human-specific hepatotoxicity: known to cause human-specific hepatotoxicity

## O=c1[nH]c(=O)n([C@@H]2O[C@H](CO)[C@@H](O)[C@@H]2F)cc1I [FIAU]
[4]
  participants who developed acute liver failure: seven
  participants who died: five
  participants who required a liver transplant: two
[3]
  human-specific hepatotoxicity: known to cause human-specific hepatotoxicity
[5]
  outcome of preclinical toxicology studies: cleared all preclinical toxicology studies
